Source: PubChem BioAssay AID264 (DTP/NCI, 2004)
“And” between values parts separate entries of the source, which are not always exact repeats. Identical values can stand only once. Results filed as inconclusive are left out.

System: nude mice, LX-1 lung xenograft intrarenal, tumor weight T/C
Experiment: NCI In Vivo Anticancer Drug Screen. Data for tumor model Human Lung LX-1 Xenograft (intrarenal inoculation) in NU/NU Swiss (nude) mice
Conditions: endpoint: mean tumor weight change, higher = larger tumour
Method in brief: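 In vivo, transplantable tumor; compound vs vehicle arms; tumor size measured; value = T/C.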

[1] = dose: 300.0 mg/kg/injection, schedule: Q04DX003 (sc), vehicle: suspension in saline
[2] = dose: 600.0 mg/kg/injection, schedule: Q04DX003 (sc), vehicle: suspension in saline
[3] = dose: 1200.0 mg/kg/injection, schedule: Q04DX003 (sc), vehicle: suspension in saline
[4] = dose: 2400.0 mg/kg/injection, schedule: Q04DX003 (sc), vehicle: suspension in saline
[5] = dose: 300.0 mg/kg/injection, schedule: Q04DX003 (sc), vehicle: saline with Tween-80
[6] = dose: 300.0 mg/kg/injection, schedule: Q04DX003 (sc), vehicle: Klucel (hydroxypropylcellulose) (HPC)

Q: For CCCNC1=C(C)C(=O)C2=C(C1=O)[C@H](COC(N)=O)[C@]1(OC)[C@@H]3N[C@@H]3CN21, which T/C (dose: 3.0 mg/kg/injection, schedule: Q04DX003 (sc), vehicle: suspension in saline) is on record?
A: 32 % of control

Q: And the T/C (dose: 24.0 mg/kg/injection, schedule: Q04DX003 (sc), vehicle: suspension in saline)?
A: 5 % of control and 17 % of control and 28 % of control

Q: With COc1ccc2c(NCCCCCCNc3c4ccccc4nc4cc(OC)ccc34)c3ccccc3nc2c1 as the compound, how does the T/C (dose: 1.25 mg/kg/injection, schedule: Q01DX010 (sc), vehicle: lactic acid) read?
A: 105 % of control

Q: What about the T/C (dose: 2.5 mg/kg/injection, schedule: Q01DX010 (sc), vehicle: lactic acid) of the same compound?
A: 100 % of control

Q: What about the T/C (dose: 10.0 mg/kg/injection, schedule: Q01DX010 (sc), vehicle: lactic acid) of the same compound?
A: 48 % of control

Q: O=C(O)CC(=O)O.[NH-]C1CCCCC1[NH-].[Pt+2] (centres undefined) was tested. Which T/C (dose: 5.0 mg/kg/injection, schedule: Q01DX010 (sc), vehicle: dextrose) did it give?
A: 187 % of control and 247 % of control

Q: What about the T/C (dose: 10.0 mg/kg/injection, schedule: Q01DX010 (sc), vehicle: dextrose) of the same compound?
A: 92 % of control

Q: C/C(=N\N=C(/[Se])N1CC2CCC(CC2)C1)c1ccccn1 was tested. Which T/C (dose: 12.5 mg/kg/injection, schedule: Q04DX003 (sc), vehicle: Klucel (hydroxypropylcellulose) (HPC)) did it give?
A: 100 % of control

Q: What about the T/C (dose: 25.0 mg/kg/injection, schedule: Q04DX003 (sc), vehicle: Klucel (hydroxypropylcellulose) (HPC)) of the same compound?
A: 79 % of control

Q: What about the T/C (dose: 50.0 mg/kg/injection, schedule: Q04DX003 (sc), vehicle: Klucel (hydroxypropylcellulose) (HPC)) of the same compound?
A: 85 % of control

Q: And the T/C (dose: 100.0 mg/kg/injection, schedule: Q04DX003 (sc), vehicle: Klucel (hydroxypropylcellulose) (HPC))?
A: 253 % of control

Q: Which results are given for O=C1NC(O)c2ccccc2O1 (centres undefined)?
A: T/C [1]: 102 % of control; T/C [2]: 79 % of control; T/C [3]: 63 % of control; T/C [4]: 86 % of control

Q: For COc1ccc(OC)c(Cc2cnc3nc(N)nc(N)c3c2C)c1, which T/C (dose: 75.0 mg/kg/injection, schedule: Q04DX003 (sc), vehicle: water) is on record?
A: 82 % of control

Q: And the T/C (dose: 150.0 mg/kg/injection, schedule: Q04DX003 (sc), vehicle: water)?
A: 80 % of control

Q: And the T/C (dose: 300.0 mg/kg/injection, schedule: Q04DX003 (sc), vehicle: water)?
A: 94 % of control

Q: What about the T/C (dose: 600.0 mg/kg/injection, schedule: Q04DX003 (sc), vehicle: water) of the same compound?
A: 94 % of control

Q: Which results are given for COC1OC(CO)C(O)C(NC(=O)N(C)N=O)C1O (centres undefined)?
A: T/C (dose: 800.0 mg/kg/injection, schedule: Q04DX003 (sc), vehicle: saline): 31 % of control; T/C (dose: 900.0 mg/kg/injection, schedule: Q04DX003 (sc), vehicle: saline): -100 % of control

Q: For C1OC1C1CO1 (centres undefined), which T/C (dose: 12.5 mg/kg/injection, schedule: Q01DX010 (sc), vehicle: saline) is on record?
A: 106 % of control

Q: And the T/C (dose: 25.0 mg/kg/injection, schedule: Q01DX010 (sc), vehicle: saline)?
A: 80 % of control

Q: And the T/C (dose: 50.0 mg/kg/injection, schedule: Q01DX010 (sc), vehicle: saline)?
A: 66 % of control

Q: What does the source list for Nc1nc(/C=C(/O)c2ccccc2)c2ncn(C3OC(CO)C(O)C3O)c2n1 (centres undefined)?
A: T/C (dose: 100.0 mg/kg/injection, schedule: Q04DX003 (sc), vehicle: distilled water + Tween-80): 111 % of control; T/C (dose: 200.0 mg/kg/injection, schedule: Q04DX003 (sc), vehicle: distilled water + Tween-80): 100 % of control; T/C (dose: 400.0 mg/kg/injection, schedule: Q04DX003 (sc), vehicle: distilled water + Tween-80): 99 % of control

Q: Which T/C (dose: 150.0 mg/kg/injection, schedule: Q04DX003 (sc), vehicle: saline with Tween-80) does the source give for C[C@H](CCC[C@H](C)OS(=O)(=O)c1ccccc1)OS(=O)(=O)c1ccccc1 here?
A: 87 % of control

Q: And the T/C [5]?
A: 45 % of control

Q: Which T/C (dose: 75.0 mg/kg/injection, schedule: Q04DX003 (sc), vehicle: saline + alcohol) does the source give for CSc1ncnc2c1ncn2C1OC(CO)C(O)C1O (centres undefined) here?
A: 166 % of control

Q: What about the T/C (dose: 150.0 mg/kg/injection, schedule: Q04DX003 (sc), vehicle: saline + alcohol) of the same compound?
A: 22 % of control

Q: With C[C@]12CCC(=O)C=C1CC[C@@H]1[C@@H]2C(=O)C[C@@]2(C)[C@H]1CC[C@]2(O)C(=O)CO as the compound, how does the T/C [6] read?
A: 38 % of control

Q: What about the T/C (dose: 600.0 mg/kg/injection, schedule: Q04DX003 (sc), vehicle: Klucel (hydroxypropylcellulose) (HPC)) of the same compound?
A: 34 % of control

Q: And the T/C (dose: 1200.0 mg/kg/injection, schedule: Q04DX003 (sc), vehicle: Klucel (hydroxypropylcellulose) (HPC))?
A: 52 % of control

Q: What does the source list for CC1C=NNC1=O (centres undefined)?
A: T/C (dose: 100.0 mg/kg/injection, schedule: Q01DX010 (sc), vehicle: saline with Tween-80): 97 % of control; T/C (dose: 200.0 mg/kg/injection, schedule: Q01DX010 (sc), vehicle: saline with Tween-80): 270 % of control; T/C (dose: 400.0 mg/kg/injection, schedule: Q01DX010 (sc), vehicle: saline with Tween-80): 82 % of control

Q: Which T/C (dose: 150.0 mg/kg/injection, schedule: Q04DX003 (ip), vehicle: saline with Tween-80) does the source give for NS(=O)(=O)OCCCCCCCOS(N)(=O)=O here?
A: 109 % of control

Q: And the T/C (dose: 300.0 mg/kg/injection, schedule: Q04DX003 (ip), vehicle: saline with Tween-80)?
A: 123 % of control

Q: With CCC1(O)CC2CN(CCc3c([nH]c4ccccc34)C(C(=O)OC)(c3cc4c(cc3OC)N(C)C3C(O)(C(=O)NCCSSCCNC(=O)C5(O)C(O)C6(CC)C=CCN7CCC8(c9cc(C%10(C(=O)OC)CC%11CN(CCc%12c%10[nH]c%10ccccc%12%10)CC(O)(CC)C%11)c(OC)cc9N(C)C58)C76)C(O)C5(CC)C=CCN6CCC43C65)C2)C1 (centres undefined) as the compound, how does the T/C (dose: 0.75 mg/kg/injection, schedule: Q04DX003 (sc), vehicle: saline) read?
A: 46 % of control

Q: And the T/C (dose: 1.5 mg/kg/injection, schedule: Q04DX003 (sc), vehicle: saline)?
A: 23 % of control and 46 % of control

Q: What about the T/C (dose: 1.5 mg/kg/injection, schedule: Q04DX003 (sc), vehicle: suspension in saline) of the same compound?
A: 105 % of control

Q: And the T/C (dose: 6.0 mg/kg/injection, schedule: Q04DX003 (sc), vehicle: suspension in saline)?
A: 81 % of control

Q: And the T/C (dose: 12.0 mg/kg/injection, schedule: Q04DX003 (sc), vehicle: saline)?
A: 88 % of control

Q: What about the T/C (dose: 12.0 mg/kg/injection, schedule: Q04DX003 (sc), vehicle: suspension in saline) of the same compound?
A: 65 % of control

Q: For N=c1nc2n(cc1F)[C@@H]1O[C@H](CO)[C@@H](O)[C@@H]1O2, which T/C [1] is on record?
A: 102 % of control

Q: What about the T/C [2] of the same compound?
A: 57 % of control

Q: What about the T/C [3] of the same compound?
A: 80 % of control

Q: And the T/C [4]?
A: 87 % of control

Q: CCC1=C[C@H]2CN(CCc3c([nH]c4ccccc34)[C@@](C(=O)OC)(c3cc4c(cc3OC)N(C)[C@H]3[C@@](O)(C(=O)NC)[C@H](OC(C)=O)[C@]5(CC)C=CCN6CC[C@]43[C@@H]65)C2)C1 was tested. Which T/C (dose: 0.5 mg/kg/injection, schedule: Q04DX003 (sc), vehicle: water) did it give?
A: 63 % of control

Q: What about the T/C (dose: 1.0 mg/kg/injection, schedule: Q04DX003 (sc), vehicle: water) of the same compound?
A: 67 % of control

Q: What about the T/C (dose: 4.0 mg/kg/injection, schedule: Q04DX003 (sc), vehicle: water) of the same compound?
A: 10 % of control

Q: Which results are given for O=C(O)C1Cc2nc[nH]c2CN1CO (centres undefined)?
A: T/C [5]: 74 % of control; T/C (dose: 600.0 mg/kg/injection, schedule: Q04DX003 (sc), vehicle: saline with Tween-80): 85 % of control; T/C (dose: 1200.0 mg/kg/injection, schedule: Q04DX003 (sc), vehicle: saline with Tween-80): 41 % of control; T/C (dose: 2400.0 mg/kg/injection, schedule: Q04DX003 (sc), vehicle: saline with Tween-80): 87 % of control

Q: How did the T/C (dose: 50.0 mg/kg/injection, schedule: Q04DX003 (sc), vehicle: saline with Tween-80) turn out when Clc1ccc2nnnn2n1 was run?
A: 72 % of control

Q: And the T/C (dose: 100.0 mg/kg/injection, schedule: Q04DX003 (sc), vehicle: saline with Tween-80)?
A: 88 % of control

Q: And the T/C (dose: 200.0 mg/kg/injection, schedule: Q04DX003 (sc), vehicle: saline with Tween-80)?
A: 85 % of control

Q: And the T/C (dose: 400.0 mg/kg/injection, schedule: Q04DX003 (sc), vehicle: saline with Tween-80)?
A: 93 % of control

Q: O=c1[nH]c(=O)n(C2CC(O)C(CO)O2)cc1F (centres undefined) was tested. Which T/C (dose: 50.0 mg/kg/injection, schedule: Q01DX010 (sc), vehicle: water) did it give?
A: 77 % of control

Q: And the T/C (dose: 100.0 mg/kg/injection, schedule: Q01DX010 (sc), vehicle: water)?
A: 39 % of control

Q: With COc1ccc2c(c1)CCn1c(C)c(COC(=O)NC(C)C)c(COC(=O)NC(C)C)c1-2 as the compound, how does the T/C (dose: 37.5 mg/kg/injection, schedule: Q04DX003 (sc), vehicle: distilled water + Tween-80) read?
A: 65 % of control

Q: And the T/C (dose: 75.0 mg/kg/injection, schedule: Q04DX003 (sc), vehicle: distilled water + Tween-80)?
A: 64 % of control

Q: What about the T/C (dose: 150.0 mg/kg/injection, schedule: Q04DX003 (sc), vehicle: distilled water + Tween-80) of the same compound?
A: 55 % of control

Q: And the T/C (dose: 300.0 mg/kg/injection, schedule: Q04DX003 (sc), vehicle: distilled water + Tween-80)?
A: 63 % of control

Q: Which results are given for N/C(=N\OC(=O)Nc1ccc(CSc2ccc(Cl)cc2)o1)c1ccccn1?
A: T/C (dose: 75.0 mg/kg/injection, schedule: Q04DX003 (sc), vehicle: Klucel (hydroxypropylcellulose) (HPC)): 69 % of control; T/C (dose: 150.0 mg/kg/injection, schedule: Q04DX003 (sc), vehicle: Klucel (hydroxypropylcellulose) (HPC)): 66 % of control; T/C [6]: 180 % of control
